Test results reported in patent publication US12274703B2, “Compositions and methods of treatment for neurological disorders comprising a dementia” (Gliapharm SA, priority 2017, dated 2025).

Tests used:
primary mouse astrocytes [1] = test: Extracellular medium acidification (SNARF5), Example 2; type: cell-based; conditions: Astrocyte, 3 nM to 30 μM, 1.5 h and 3 h
Description: (§1) Primary cultures of cerebrocortical astrocytes were obtained from 1 to 2-day-old OF1 mouse pups (Charles River). Briefly, cortices were isolated and minced in small pieces under a dissecting microscope. The cells were incubated for 30 min at 37° C. in a solution containing 20 U/ml papain, 1 mM L-cysteine and 10 kU/ml DNase I. After dissociation, papain activity was stopped by the addition of fetal calf serum (FCS). Single-cell suspension was then obtained by mechanical dissociation, which consisted in cells trituration in a DMEM D7777 medium supplemented with 44 mm NaHCO3, 10 ml/L antibiotic/antimycotic solution and 10% FCS. […]
Secretion of lactate was measured indirectly through the acidification of extracellular medium using extracellular pH sensor SNARE-5F-(AND-6)-CAR (SNARF5). […] After 90 min stimulation, fluorescence was read at exc. […] The ratio of fluorescence between 630 nm and 580 emission values, which is proportional to extracellular pH, was calculated. […]
The extracellular medium acidification in primary mouse astrocytes treated with GP-A1 was quantified (FIG. 13). Extracellular medium acidification was measured over a period of 1.5 h and 3 h.

primary mouse astrocytes [2] = test: Extracellular lactate quantification, Example 2; type: cell-based; conditions: Astrocyte, 3 nM to 30 μM, 1.5 h, read-out: EC50 release of lactate
Description: as §1
Secretion of L-lactate was measured in the extracellular medium of 96-well plated astrocytes after 90 min stimulation (at 37° C., in 5% CO2/95% air conditions) with Vehicle (DMSO), the compounds of the invention (100 nM to 100 μM) or positive control. […] To quantify lactate concentrations in the extracellular medium, 200 μl of a 0.2M Glycine-semicarbazide buffer (pH 10) containing 3 mM NAD and 14 U/ml LDH was added to each well of a 96-well plate containing 30 μl aliquots of extracellular medium. […] Fluorescence intensity (340 nm excitation/450 nm emission), which represents the amount of NADH produced, was measured, and lactate concentration values were determined relative to a standard curve of L-lactate concentrations. […]

[3] = In vivo pharmacokinetics (PFC microdialysis and plasma); design: species or system mouse; conditions: after gavage with 100 mg/kg; sustained over several hours
Description: Mice were anesthetized using isoflurane (2% and 800 mL/min 02). Before surgery, Finadyne (1 mg/kg, s.c.) was administered for analgesia during surgery and the post-surgical recovery period. A mixture of bupivacaine and epinephrine was used for local anesthesia of the incision site of the periost of the skull.
The animals were placed in a stereotaxic frame (Kopf instruments, USA). MetaQuant microdialysis probes with a 3 mm exposed polyacrylonitrile membrane (MQ-PAN 3/3, Brainlink, the Netherlands) were implanted into the prefrontal cortex (coordinates for the tip of the probe: AP=+2.0 mm (to bregma), lateral=−0.7 mm (to midline), ventral=−3.3 mm (to dura), with the incisor bar set at 0.0 mm and an angle of 8°). All coordinates were based on “The mouse brain in stereotaxic coordinates” by Paxinos and Franklin (2004). The probes were attached to the skull with a stainless steel screw and dental cement (Fuji Plus Capsules, Henry Schein, the Netherlands).
In the same surgical procedure, a catheter was placed into the jugular vein to accommodate blood sampling. An indwelling cannula was inserted into the right jugular vein, and exteriorized through an incision on top of the skull. […]
PK was measured for GP-04, GP-05, GP-07, GP-R1 and GP-P1 in the PFC (prefrontal cortex) and plasma of wild type C56Bl/6 mice by CRO Brainsonline.

SMILES	EC50 (primary mouse astrocytes [1]) [nM]	EC50 (primary mouse astrocytes [2]) [nM]	Levels in the PFC [3]
Cc1ccccc1NC(=O)C1CCCN(c2ncnc3oc(C)c(C)c23)C1 (stereo not shown) [F228-0422]	370 to 480	590	–
CC(=O)N1CCc2sc(S(=O)(=O)N3CCN(c4ccccc4C)CC3)cc2C1 [P025-0159]	–	–	need chemical improvement to reach their target at therapeutic dose in the brain
COc1cc(C)c(Cl)cc1S(=O)(=O)NCc1ccncc1 [T5580243]	–	–	at therapeutic range (100 nM to 1 uM)
